# Assay results published in patent EP2974714B1, “USE OF DERIVATIVES WITH C-O-P BONDS IN PATIENTS WITH RENAL FAILURE” (LABORATORIS SANIFIT, S.L., priority 2013, dated 2014).
# Experiments:
# [1] = HAP crystallisation induction period (synergy with other treatments); format: physicochemical
# Procedure: Experimental: hydroxyapatite (HAP) was crystallised by mixing appropriate concentrations of calcium and phosphate at pH 7.4. The effect of cinacalcet and sevelamer was simulated by suitably modifying the calcium and phosphate concentrations. The induction period (time required for HAP to begin to crystallise) was recorded as the analytical signal.
# [2] = test system: cardiovascular function; experiment: Cardiovascular function after 2 h intravascular infusion in conscious dogs by telemetry; format: in vivo; conditions: for peak IP6 levels: dogs
# Procedure: Experimental: 4 male dogs were treated with 3, 10 and 30 mg/kg IP6 by infusion for 2 h in a Latin square design. A washout period of one week was performed between doses. ECGs were measured telemetrically at 1 h and 20 minutes prior to infusion and 5, 15, 30, 45 minutes, 1, 2, 6 and 24 h post-infusion. In a second stage, blood samples were taken for PK, for the same doses, at 20 minutes prior to infusion and 5, 15, 30 minutes and 1, 1.5, 2, 3 and 6 h post-infusion. In this case the washout period between doses was 2 days. Total and free calcium in the blood samples was also measured.
# [3] = test system: tissue calcification in a chronic renal impairment model (5/6 nephrectomised rats); experiment: 5/6 nephrectomy model, IP6 by i.v. bolus; format: in vivo, SD rats; conditions: i.v. bolus 1 or 5 mg/kg, 8 weeks
# Procedure: Experimental: 48 SD rats were 5/6 nephrectomised by complete right lateral nephrectomy and 2/3 partial nephrectomy of the left kidney. 16 animals per group were treated intravenously (bolus) with 2 ml/kg saline, 1 mg/kg IP6 or 5 mg/kg IP6. The animals received a phosphate-rich diet (1% Ca, 1.2% P) containing 20% lactose. After 8 weeks the aorta, heart and remaining 1/3 kidney were collected, and the tissue calcium content determined.
# [4] = test system: proteins; experiment: Binding of IP6 to proteins (dialysability); format: in vitro ADME
# [5] = Administration of IP6 via the dialysis system (dialysability, calcium chelation in blood); format: in vitro ADME, human
# Procedure: Experimental: 1 litre of human blood obtained from patients undergoing therapeutic phlebotomy was introduced into a recipient forming a closed dialysis circuit to simulate a real dialysis. Two experiments were performed (administration pre- and post-dialyser, both in bypass and dialysis mode), administering IP6 to human blood for 20 minutes when outside the recipient (which simulated the animal or human body) and circulating via the dialysis circuit. The recipient containing 1 litre of whole blood at a controlled temperature of 37°C is connected to the dialysis apparatus to form a closed circuit. The dialysis apparatus will be connected for 1 hour (dialysis fluid flow of 500 ml/min and blood flow of 350 ml/min). Blood samples are collected at different times to determine the IP6 and ionic calcium levels.
# [6] = PK profile of IP6 s.c. in rats with normal and diminished kidney function; format: in vivo, Wistar rats
# Procedure: Experimental: a single s.c. dose (10 mg/kg) was administered to rats with normal kidney function. Plasma samples were obtained at different timepoints up to 60 minutes. A different group of Wistar rats received oral treatment with adenine 600 mg/kg (p.o.) for 10 days to induce renal impairment. Alpha-calcidol (300 ng/kg) was administered on days 11 and 13 and plasma samples were collected at different timepoints up to 60 minutes on day 14. The plasma IP6 concentrations were quantified for both groups.
# [7] = test system: vitamin D-induced cardiovascular calcification in rats; experiment: Inhibition of vit D-induced (75,000 IU/kg x 5) cardiovascular calcification by intravenous IP6; format: in vivo, male Sprague Dawley (SD) rats
# Procedure: Experimental: male Sprague Dawley (SD) rats were divided into 7 groups and IP6 was administered intravenously daily for 14 days at a dose of 0, 0.05, 0.1, 0.5, 1, 5 and 10 mg/kg. Calcification was induced by oral administration of 75,000 IU/kg vitamin D on treatment days 3 to 7. Samples were collected. On day 14 the aortas and hearts of the animals were collected to quantify calcification.
# [8] = normal Wistar rats, single s.c. dose 10 mg/kg
# [9] = uraemic rats (adenine), s.c. 10 mg/kg
# [10] = i.v. dose of between 1 and 10 mg/kg daily for 14 days
smiles,measurement,setting,value
"O=P(O)(O)O[C@H]1[C@H](OP(=O)(O)O)[C@@H](OP(=O)(O)O)[C@H](OP(=O)(O)O)[C@@H](OP(=O)(O)O)[C@H]1OP(=O)(O)O [IP6, inositol hexaphosphate]",induction time (time required for HAP to begin to crystallise),"[1]; 11.4 µM IP6, pH 7.4, control 8 minutes",28 min
same,effect of adding IP6 to simulated cinacalcet and sevelamer,[1]; IP6 0-11.4 µM with constant simulated concentration of cinacalcet or sevelamer,clear synergistic effect
same,peak IP6 levels,[2]; 3 mg/kg infusion for 2 h,27 µM
same,peak IP6 levels,[2]; 10 mg/kg infusion for 2 h,150 µM
same,peak IP6 levels,[2]; 30 mg/kg infusion for 2 h,482 µM
same,mean blood ionic calcium concentrations,"[2]; infusion for 2 h, 3, 10 and 30 mg/kg",unaffected
same,"state of health, weight, cardiorespiratory function, ECG, body temperature and total and free potassium in blood","[2]; infusion for 2 h, 3, 10 and 30 mg/kg (any dose)",relatively unaffected
same,"calcification inhibition (aorta, heart, remaining kidney)",[3],no evidence of calcification inhibition
same,binding of IP6 to proteins,[4],70-90%
same,compound available to be dialysed,[4],10-30%
same,loss of IP6 via the dialysis membrane,"[5]; administration via the dialysis line for 20 minutes, 1 litre human blood, 37°C",not lost via the dialysis membrane
same,effect on free calcium in blood,[5]; apparatus in bypass mode,chelates (sequesters) free calcium
same,effect on ionic calcium levels in blood,[5]; apparatus in dialysis mode,ionic calcium levels are restored
same,duration of measurable levels,[6]; [8],at least 30 minutes
same,peak concentration (plasma IP6),[6]; [8],7.4 µM
same,time of peak concentration post-administration,[6]; [8],15 min
same,peak concentration (plasma IP6),[6]; [9],1.8 µM
same,time of peak concentration post-administration,[6]; [9],5 min
same,effect on the mineral content of the aorta and heart,[7]; i.v. 0.05 to 0.5 mg/kg daily for 14 days,did not affect
same,reduction of calcification in aorta,[7]; [10],up to 60%
same,reduction of calcification in heart,[7]; [10],≤ 68%
